The values that follow are results of earlier work, collected in US9511011B2, “TRPV1 inhibitory peptides and composition for skin-aging protection or wrinkle improvement comprising the same” (SNU R&DB FOUNDATION, priority 2012, dated 2016).

The target of the data set is T1, TRPV1 (Homo sapiens, UniProt Q8NER1).
T1 construct: Capsaicin stimulus increases intracellular Ca^2+ level in keratinocytes, which is suppressed by capsazepine; host or cells: keratinocytes (endogenous TRPV1)
Particulars: keratinocytes.

T1 sequence (Q8NER1 whole entry): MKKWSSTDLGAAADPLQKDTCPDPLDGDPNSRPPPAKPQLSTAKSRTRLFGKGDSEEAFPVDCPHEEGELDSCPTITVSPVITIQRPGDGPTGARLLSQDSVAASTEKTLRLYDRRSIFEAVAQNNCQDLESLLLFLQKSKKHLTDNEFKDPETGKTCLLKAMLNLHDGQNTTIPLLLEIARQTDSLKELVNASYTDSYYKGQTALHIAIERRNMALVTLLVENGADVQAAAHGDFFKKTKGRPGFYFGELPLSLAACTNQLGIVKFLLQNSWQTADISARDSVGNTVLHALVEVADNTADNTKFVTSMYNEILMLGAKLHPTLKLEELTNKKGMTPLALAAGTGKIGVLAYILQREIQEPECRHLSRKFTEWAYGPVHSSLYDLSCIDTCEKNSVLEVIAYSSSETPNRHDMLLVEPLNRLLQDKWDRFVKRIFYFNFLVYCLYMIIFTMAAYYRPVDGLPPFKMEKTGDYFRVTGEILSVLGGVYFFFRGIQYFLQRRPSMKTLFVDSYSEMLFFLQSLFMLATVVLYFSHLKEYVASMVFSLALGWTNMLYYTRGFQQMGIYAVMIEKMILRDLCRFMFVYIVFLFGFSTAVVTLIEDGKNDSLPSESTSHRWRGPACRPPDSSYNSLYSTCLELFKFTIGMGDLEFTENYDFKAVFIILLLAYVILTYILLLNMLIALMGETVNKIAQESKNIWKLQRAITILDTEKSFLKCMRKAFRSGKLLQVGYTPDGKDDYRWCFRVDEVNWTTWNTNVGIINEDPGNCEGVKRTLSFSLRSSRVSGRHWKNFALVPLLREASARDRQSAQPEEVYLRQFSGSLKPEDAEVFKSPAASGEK

For the molecule `Oc1cc2c(cc1O)CN(C(=S)NCCc1ccc(Cl)cc1)CCC2` [capsazepine], the “intracellular Ca2+ level increased by capsaicin stimulus” value is “suppressed”.
